Measurements reported in the Kinase Knowledgebase extract (Sharma et al. 2016).

Biological target: PIK3CA (human) (UniProt P42336)
Assay: Assessment of PI3KCA Kinase Activity

PIK3CA (human), sequence (P42336 whole entry, looked up): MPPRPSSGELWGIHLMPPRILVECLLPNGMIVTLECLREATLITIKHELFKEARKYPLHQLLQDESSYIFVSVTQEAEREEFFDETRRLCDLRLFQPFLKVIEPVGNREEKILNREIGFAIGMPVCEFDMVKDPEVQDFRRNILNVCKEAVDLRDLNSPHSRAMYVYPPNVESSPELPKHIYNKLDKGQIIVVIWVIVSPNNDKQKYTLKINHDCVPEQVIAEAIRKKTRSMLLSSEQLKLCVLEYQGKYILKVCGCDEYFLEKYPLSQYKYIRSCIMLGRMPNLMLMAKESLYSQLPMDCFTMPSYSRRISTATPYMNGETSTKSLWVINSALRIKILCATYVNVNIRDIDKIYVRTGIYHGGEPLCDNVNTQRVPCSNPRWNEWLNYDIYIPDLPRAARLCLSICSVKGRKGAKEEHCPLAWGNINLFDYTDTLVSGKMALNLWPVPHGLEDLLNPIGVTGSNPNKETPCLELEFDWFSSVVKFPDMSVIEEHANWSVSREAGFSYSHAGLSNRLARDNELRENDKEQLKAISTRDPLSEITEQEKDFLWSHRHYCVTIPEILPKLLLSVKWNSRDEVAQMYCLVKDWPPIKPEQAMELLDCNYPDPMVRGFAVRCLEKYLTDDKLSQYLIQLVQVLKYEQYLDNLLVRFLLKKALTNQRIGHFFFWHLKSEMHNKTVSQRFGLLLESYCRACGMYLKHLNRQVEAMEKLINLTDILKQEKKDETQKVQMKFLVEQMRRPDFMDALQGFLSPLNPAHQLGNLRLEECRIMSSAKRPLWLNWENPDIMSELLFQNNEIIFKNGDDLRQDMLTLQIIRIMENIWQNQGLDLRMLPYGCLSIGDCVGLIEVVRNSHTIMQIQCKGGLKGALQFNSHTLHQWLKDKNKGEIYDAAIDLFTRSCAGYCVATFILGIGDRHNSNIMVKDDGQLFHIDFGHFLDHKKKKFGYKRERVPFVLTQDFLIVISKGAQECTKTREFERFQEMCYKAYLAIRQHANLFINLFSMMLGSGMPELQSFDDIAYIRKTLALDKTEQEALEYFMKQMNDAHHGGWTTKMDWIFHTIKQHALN

Structure (SMILES)	IC50 [nM]
CCOc1nc(-c2ccnc(NC(=O)C3CCCC3)c2)sc1-c1nnc[nH]1	100 to 1000
CCOc1nc(-c2ccnc(NC(=O)c3ccc(N(C)C)cc3)c2)sc1-c1nnc[nH]1	100 to 1000
N#Cc1c(-c2ccnc(N)c2)sc(-c2ccn[nH]2)c1-c1ccc(Cl)cc1Cl	100 to 1000
COCCNc1cc(-c2sc(-c3nnc[nH]3)c(-c3ccc(Cl)cc3Cl)c2C#N)ccn1	100 to 1000
Cc1nc2ccc(-c3cnn(C)c3)cn2c1-c1nc(-c2ccccc2)c(-c2nc[nH]n2)s1	< 100
CCC(=O)Nc1cc(-c2nc(-c3ccc(Cl)cc3Cl)c(-c3ncc[nH]3)s2)ccn1	< 100
COC[C@H]1CCCN1CCC(=O)Nc1cc(-c2nc(-c3ccccc3)c(-c3nnc[nH]3)s2)ccn1	< 100
COc1cccc(F)c1-c1nc(-c2c(C)nn3ccc(OCCN4CCN(S(C)(=O)=O)CC4)cc23)sc1-c1nc[nH]n1	< 100
Cc1nc2ccc(C3CCCCC3)cn2c1-c1nc(-c2ccccc2)c(-c2nc[nH]n2)s1	100 to 1000
Cc1nn2ccccc2c1-c1nc(-c2ccoc2)c(-c2nnc[nH]2)s1	< 100
Cc1nn2ccccc2c1-c1nc(-c2ccc(CO)cc2)c(-c2nc[nH]n2)s1	< 100
CC(=O)Nc1cc(-c2nc(Br)c(-c3ncc[nH]3)s2)ccn1	100 to 1000
COc1cccc(F)c1-c1ccc2nc(C)c(-c3nc(-c4ccccc4)c(-c4nc[nH]n4)s3)n2c1	100 to 1000
Cc1nn2ccc(OCCNC(=O)c3cn(C)cn3)cc2c1-c1nc(-c2ccccc2)c(-c2nc[nH]n2)s1	< 100
CCCC(=O)Nc1cc(-c2nc(OCC)c(-c3nnc[nH]3)s2)ccn1	100 to 1000
CC(=O)Nc1cc(-c2nc(-c3cc(Cl)ccc3Cl)c(-c3ncc[nH]3)s2)ccn1	< 100
CC(=O)Nc1cc(-c2sc(-c3ccn[nH]3)c(-c3ccc(Cl)cc3Cl)c2C#N)ccn1	< 100
N#Cc1c(-c2ccnc(N)c2)sc(C(N)=O)c1-c1ccc(Cl)cc1Cl	< 100
Cc1nn2ccccc2c1-c1nc(-c2ccc(N3CCOCC3)nc2)c(-c2nc[nH]n2)s1	100 to 1000
Cc1nc2ccc(C(O)CO)cn2c1-c1nc(-c2ccccc2)c(-c2nnc[nH]2)s1 (configuration not stated)	< 100
Cc1nn2ccc(OCCNC(=O)C(C)(C)N)cc2c1-c1nc(-c2ccccc2)c(-c2nc[nH]n2)s1	< 100
Cc1nn2ccccc2c1-c1nc(-c2ccccc2OCc2ccccc2)c(-c2nc[nH]n2)s1	100 to 1000

Further lines, results first:

IC50 [nM]	Structure (SMILES)
< 100	CC(=O)Nc1cc(-c2nc(-c3cn(C)nc3C(F)(F)F)c(-c3ncc[nH]3)s2)ccn1
< 100	Cc1nn2ccccc2c1-c1nc(-c2ccccc2Cl)c(-c2nnc[nH]2)s1
< 100	Cc1nn2ccsc2c1-c1nc(-c2ccccc2)c(-c2ccn[nH]2)s1
< 100	CC(=O)Nc1cc(-c2nc(-c3ccc(C)cc3)c(-c3ncc[nH]3)s2)ccn1
< 100	CCNc1nccc(-c2sc(-c3nnc[nH]3)c(-c3ccc(Cl)cc3Cl)c2C#N)n1
< 100	Clc1ccc(-c2nc(-c3ccnc4[nH]ccc34)sc2-c2ncc[nH]2)c(Cl)c1
< 100	Cc1nn2ccccc2c1-c1nc(-c2cccc(F)c2)c(-c2nnc[nH]2)s1
< 100	N#Cc1c(-c2ccnc(N)n2)sc(C(N)=O)c1-c1ccc(Cl)cc1Cl
< 100	CC(=O)Nc1cc(-c2sc(-c3nccn3Cc3ccccc3)c(-c3ccc(Cl)cc3Cl)c2C#N)ccn1
< 100	CC(=O)Nc1cc(-c2sc(-c3cnn[nH]3)c(-c3ccc(Cl)cc3Cl)c2C#N)ccn1
